Experimental data published in PubChem BioAssay AID1963967 (Molecular Pharmacology Branch, DTP, NCI, 2024).

Tested on: 855422-203-R-J1-PDC spheroids with HUVEC/MSC, viability
Assay: Anticancer human tumor 855422-203-R-J1-PDC patient-derived bladder carcinoma cell line growth inhibition [PI3K]
Conditions: for IC50: curve of first compound; for viability, T/C: stronger effect = lower value
Method in brief: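 We assembled tumor spheroids that included a stromal compartment of HUVEC and MSCs, then exposed them to targeted agents alone and together with PI3K pathway inhibitors. Concentration series descended by half-log from clinically achievable Cmax levels. Viability served as the endpoint.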
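Further: agents incubated with spheroids for one week before read-out.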
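Wherever viability, T/C is given: 100% = DMSO vehicle-treated control wells.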

SMILES: CC1(C)CCC(CN2CCN(c3ccc(C(=O)NS(=O)(=O)c4ccc(NCC5CCOCC5)c([N+](=O)[O-])c4)c(Oc4cnc5[nH]ccc5c4)c3)CC2)=C(c2ccc(Cl)cc2)C1 + COc1c(OCCCN2CCOCC2)ccc2c3n(c(=NC(=O)c4cnc(N)nc4)nc12)CCN3
- IC50 (second compound 0.00316 µM): 5.28 µM
- IC50 (second compound 0.01 µM): 5.04 µM
- IC50 (second compound 0.0316 µM): 4.6 µM
- IC50 (second compound 0.1 µM): < 0.0316 µM
- IC50 (second compound 0.316 µM): < 0.0316 µM
- IC50 (second compound 1 µM): < 0.0316 µM
- viability, T/C (second compound 0.00316 µM, first compound 0.0316 µM): 98.5%
- viability, T/C (second compound 0.00316 µM, first compound 0.1 µM): 80.8%
- viability, T/C (second compound 0.00316 µM, first compound 0.316 µM): 99.5%
- viability, T/C (second compound 0.00316 µM, first compound 1 µM): 87.2%
- viability, T/C (second compound 0.00316 µM, first compound 3.16 µM): 88.1%
- viability, T/C (second compound 0.00316 µM, first compound 10 µM): 2.53%
- viability, T/C (second compound 0.01 µM, first compound 0.0316 µM): 91%
- viability, T/C (second compound 0.01 µM, first compound 0.1 µM): 77.5%
- viability, T/C (second compound 0.01 µM, first compound 0.316 µM): 78.3%
- viability, T/C (second compound 0.01 µM, first compound 1 µM): 76.4%
- viability, T/C (second compound 0.01 µM, first compound 3.16 µM): 90.8%
- viability, T/C (second compound 0.01 µM, first compound 10 µM): 1.94%
- viability, T/C (second compound 0.0316 µM, first compound 0.0316 µM): 62.5%
- viability, T/C (second compound 0.0316 µM, first compound 0.1 µM): 65.3%
- viability, T/C (second compound 0.0316 µM, first compound 0.316 µM): 73.7%
- viability, T/C (second compound 0.0316 µM, first compound 1 µM): 78.2%
- viability, T/C (second compound 0.0316 µM, first compound 3.16 µM): 87.3%
- viability, T/C (second compound 0.0316 µM, first compound 10 µM): 1.43%
- viability, T/C (second compound 0.1 µM, first compound 0.0316 µM): 29.7%
- viability, T/C (second compound 0.1 µM, first compound 0.1 µM): 30.3%
- viability, T/C (second compound 0.1 µM, first compound 0.316 µM): 30.6%
- viability, T/C (second compound 0.1 µM, first compound 1 µM): 33.5%
- viability, T/C (second compound 0.1 µM, first compound 3.16 µM): 31.8%
- viability, T/C (second compound 0.1 µM, first compound 10 µM): 1.14%
- viability, T/C (second compound 0.316 µM, first compound 0.0316 µM): 12.1%
- viability, T/C (second compound 0.316 µM, first compound 0.1 µM): 9.95%
- viability, T/C (second compound 0.316 µM, first compound 0.316 µM): 12.7%
- viability, T/C (second compound 0.316 µM, first compound 1 µM): 9.33%
- viability, T/C (second compound 0.316 µM, first compound 3.16 µM): 9.24%
- viability, T/C (second compound 0.316 µM, first compound 10 µM): 0.68%
- viability, T/C (second compound 1 µM, first compound 0.0316 µM): 3.97%
- viability, T/C (second compound 1 µM, first compound 0.1 µM): 5.15%
- viability, T/C (second compound 1 µM, first compound 0.316 µM): 4.27%
- viability, T/C (second compound 1 µM, first compound 1 µM): 5.32%
- viability, T/C (second compound 1 µM, first compound 3.16 µM): 4.63%
- viability, T/C (second compound 1 µM, first compound 10 µM): 1.04%
